# Results reported in US20240277642A1, “POLYMERIZED VALPROIC ACID AND USE THEREOF” (UNIVERSITY OF TSUKUBA, priority 2021, published 2024).
# Assay: toxicity evaluation by changes in body weight
# Type: in vivo, mice
# Details: intraperitoneal, 500 mg/kg for 5 days; FIG. 6
# Procedure: To evaluate the toxicity of VPA and Nano^VPA, VPA and Nano^VPA were intraperitoneally administered at a dose of 500 mg/kg for 5 days, and changes in body weight of the mice were observed.
structure (smiles),measurement,value
"CCCC(CCC)C(=O)O [VPA, valproic acid]",changes in body weight,a decrease in body weight
